Experimental data reported in patent publication US9314522B2, “Antitumors combinations containing antibodies recognizing specifically CD38 and bortezomib” (Sanofi, priority 2010, dated 2016).
Like-named read-outs stand apart in the source and are kept apart here.

Tests used:
[1] = Body weight loss as index of test agent toxicity in NCI-H929 tumor-bearing mice; assay type: in vivo, SCID mice; details: days 34, 37
Source text: The animals subjected to the experiment, generally mice, are subcutaneously grafted unilaterally or bilaterally with tumor cells or fragment on day 0. The animals bearing tumors are randomized based on their tumor size before being subjected to the various treatments and controls. Chemotherapy begins when tumors have reached a predetermined size after grafting, depending on the type of tumor, and the animals are observed every day. The different animal groups are weighed daily during treatment until the maximum weight loss is reached and subsequent full weight recovery has occurred. The groups are then weighed once or twice a week until the end of the trial.
Body weights were measured twice per week as a rough index of test agent toxicity. Tumor volume and body weight were determined and recorded by Labcat software.
Toxicity was declared at dosages inducing 20% body weight loss or 10% drug death, […]

[2] = test system: NCI-H929 tumor xenografts; details: days 34, 37
Source text: A product is considered to be active if log10 cell kill is greater than or equal to 0.7. A product is considered to be very active if log10 cell kill is greater than or equal to 2.8.
The combination will manifest therapeutic synergy when the log10 cell kill is greater than the value of the log10 cell kill of the best constituent administered alone at its maximum tolerated dose or at its highest dose tested.
The animals subjected to the experiment, generally mice, are subcutaneously grafted unilaterally or bilaterally with tumor cells or fragment on day 0. The animals bearing tumors are randomized based on their tumor size before being subjected to the various treatments and controls. Chemotherapy begins when tumors have reached a predetermined size after grafting, depending on the type of tumor, and the animals are observed every day. […] The groups are then weighed once or twice a week until the end of the trial.
The tumors are measured 1 to 5 times a week, depending on the tumor doubling time, until the tumor reaches approximately 750 mg, or until the animal dies (if this occurs before the tumor reaches 750 mg). The animals are necropsied immediately after euthanasia or death.
Hu38SB19 and Bortezomib treatments were started thirty four days after cell inoculation and doses were calculated based on individual animal body weights determined from the last measurement taken before dosing. Administration of PBS and hu38SB19 antibody was carried out through intraperitoneal (IP) injection and bortezomib by intravenous (IV) injection via the tail vein, using a 1.0 mL syringe fitted with a 27 gauge, ½ inch needle.
Thirty-three days after tumor cell inoculation, sixty-four mice were randomized into 8 groups (n=8) by tumor volume. […] Mice in each group were identified by a puncture in the ear.
Treatment groups included PBS control (200 μL/mouse/treatment), hu38SB19 antibody (5.0 mg/kg/treatment), bortezomib (1.0, 0.6 and 0.4 mg/kg/treatment) and three combination groups with hu38SB19 (5.0 mg/kg/treatment) and bortezomib (1.0, 0.6 and 0.4 mg/kg/treatment). PBS, hu38SB19 and bortezomib were administered twice per week for one week (days 34 and 37 for a total of 2 treatments). Treatments were started on day 34 post inoculation of tumor cells.
Tumor volumes were measured one to two times weekly in three dimensions using a caliper. The tumor volume was expressed in mm^3 (or mg) using the formula: V=Length×Width×Height×½.
Tumor Free Survivors (TFS): correspond to complete regression below the limit of palpation (63 mg) for the entire duration of the study (>100 days post last treatment).

[3] = Bortezomib IV 0.4 mg/kg/injection (total 0.8)
[4] = Bortezomib IV 0.4 mg/kg/injection (total 0.8), 0.4 mg/kg
[5] = Bortezomib IV 0.4 mg/kg/injection (total 0.8), listed as bortezomib, 0.4 mg/kg
[6] = Bortezomib IV 0.6 mg/kg/injection (total 1.2)
[7] = Bortezomib IV 0.6 mg/kg/injection (total 1.2), 0.6 mg/kg
[8] = Bortezomib IV 0.6 mg/kg/injection (total 1.2), listed as bortezomib, 0.6 mg/kg
[9] = Bortezomib IV 1.0 mg/kg/injection (total 2.0)
[10] = Bortezomib IV 1.0 mg/kg/injection (total 2.0), 1 mg/kg
[11] = Bortezomib IV 1.0 mg/kg/injection (total 2.0), listed as bortezomib, 1 mg/kg

For CC(C)C[C@H](NC(=O)[C@H](Cc1ccccc1)NC(=O)c1cnccn1)B(O)O [Bortezomib, [(1R)-3-methyl-1-({(2S)-3-phenyl-2-[(pyrazin-2-ylcarbonyl)amino]propanoyl}amino)butyl]boronic acid], the “Average body weight loss in % per mouse at nadir (day of nadir)” value (shortened to “Average body weight loss in % per mouse”) ([1]; Bortezomib IV 0.4 mg/kg/injection (total 0.8), nadir d36) was 0.8 (d36) %, the “Average body weight loss in % per mouse” value ([1]; Bortezomib IV 0.6 mg/kg/injection (total 1.2), nadir d40) was 0.6 (d40) % and the “Average body weight loss in % per mouse” value ([1]; Bortezomib IV 1.0 mg/kg/injection (total 2.0), nadir d36) was 7.0 (d36) %. The “T-C in days (tumor growth delay)” value [2, 3] was 7 days, the “Time for median tumor to reach 750 mg” value [2, 3] was 69 days and the log cell kill [2, 3] was 0.1. For the same molecule, the “% T/C” value [2, 4] was 74%, the “Comments (anti-tumor activity rating)” value [2, 4] was “Inactive” and the “TFS at day 176 (tumor free survivors)” value [2, 4] was 1/8. For the same molecule, the “% T/C” value [2, 5] was 45%, the “Comments (anti-tumor activity rating)” value [2, 5] was “inactive” and the “TFS at day 176 (tumor free survivors)” value [2, 5] was “single TFS”. For the same molecule, the “T-C in days (tumor growth delay)” value [2, 6] was 18 days, the “Time for median tumor to reach 750 mg” value [2, 6] was 80 days and the log cell kill [2, 6] was 0.3. The “% T/C” value [2, 7] was 45%, the “Comments (anti-tumor activity rating)” value [2, 7] was “Inactive” and the “TFS at day 176 (tumor free survivors)” value [2, 7] was 0/8. The “% T/C” value [2, 8] was 75%, the “Comments (anti-tumor activity rating)” value [2, 8] was “inactive” and the “TFS at day 176 (tumor free survivors)” value [2, 8] was “No TFS”. For the same molecule, the “% T/C” value [2, 9] was 15%, the “T-C in days (tumor growth delay)” value [2, 9] was 37 days and the “Time for median tumor to reach 750 mg” value [2, 9] was 99 days. The log cell kill [2, 9] was 0.6, the “Comments (anti-tumor activity rating)” value [2, 10] was “Active” and the “TFS at day 176 (tumor free survivors)” value [2, 10] was 2/8. For the same molecule, the “Comments (anti-tumor activity rating)” value [2, 11] was “somewhat active” and the “TFS at day 176 (tumor free survivors)” value [2, 11] was 2.
